According to patent publication US20250042912A1, “NOVEL NON-FLUORINATED QUINOLONE COMPOUND AND USE THEREOF” (priority 2021, published 2025):
Converted amounts (≈) assume the structure as drawn.

Columns and labels:
[1] = test system: Staphylococcus epidermidis ATCC 12228; test: Minimum inhibitory concentration (MIC) assay, Staphylococcus epidermidis ATCC 12228; assay type: cell-based; settings: ATCC12228, aerobic culture 35+/-2°C, 16 to 20 hours, read with naked eyes
Description: On the day of the experiment, the compound in the flask was dissolved in 100% DMSO until the concentration of mother liquor was 0.4 mg/mL. If the mother liquor was not used on the same day, it was stored at −80° C. for future use.
The compound mother liquor and standard antibiotics were subjected to 2-fold gradient dilution with corresponding solvents on a 96-microwell plate (V-bottom) to obtain 100× working solutions (Well 1 to Well 7) in sequence. Among them, the concentrations of the compound were 400 μg/mL, 200 μg/mL, 100 μg/mL, 50 μg/mL, 25 μg/mL, 12.5 μg/mL, 6.25 μg/mL, and 3.125 μg/mL. 100% DMSO was used as growth control (Well 8). As such, the compound motherplate was obtained.
One day before the experiment, aerobic bacteria (Staphylococcus epidermidis) stored in a cryogenic tube at −80° C. were scribed on an MHA (Cation-adjusted Mueller-Hinton agar) plate. The aerobic bacteria were placed in a 35+/−2° C. incubator for 18-24 hours of aerobic cultivation.
On the day of the experiment, the plate was taken out, clones were picked from the plate and suspended in physiological saline. Then, the turbidity of the bacterial suspension (containing 1.0-2.0×10^8 CFU/mL) was adjusted to OD600=0.2 by a turbidity meter. Then, the adjusted bacterial suspension was diluted to an appropriate concentration with the assay culture medium: about 5×10^5 CFU/mL for aerobic bacteria, and about 1×10^6 CFU/mL for anaerobic bacteria. As such, the inoculating solution was obtained.
2 μl of 2-fold series dilution of 100× high-concentration working solution was transferred from a compound mother plate (prepared in step 1) to a round-bottom 96-well plate, and then 198 μL of bacterial inoculating solution (prepared in step 2) was added to each well to obtain an MIC assay plate. Therefore, the final assay concentrations of the compound were 4 μg/mL, 2 μg/mL, 1 μg/mL, 0.5 μg/mL, 0.25 μg/mL, 0.125 μg/mL, 0.06 μg/mL and 0.03 μg/mL. The total volume of each well on the assay plate was 200 μL: containing 1% DMSO, about 5×10^5 CFU/mL of aerobic bacteria and about 1×10^6 CFU/mL of anaerobic bacteria.
All assay plates for aerobic bacteria were aerobically cultured at 35+/−2° C. for 16 to 20 hours, and all assay plates for anaerobic bacteria were anaerobically cultured in an anaerobic incubator at 35+/−2° C. for 48 hours.

IL-6 = test: Acne model in mice: IL-6 level in left ear tissue; assay type: in vivo, Balb/C mice
Description: Experimental strain: Propionibacterium acnes ATCC 6919 (Beijing Biobw Biotechnology Co., Ltd.) Experimental animals: Balb/C mice (Zhejiang Vital River Laboratory Animal Technology Co., Ltd.) Balb/C mice were grouped and numbered, and adaptively fed for one week. On the day of modeling, Propionibacterium acnes was taken, and OD600 was measured using a microplate reader. BH1 culture medium was diluted to OD600=1 (about 5×10^8 CFU/mL), centrifuged to discard supernatant, and the remaining culture was diluted to 1×10^8 CFU/mL with PBS. Once the molding began, the mice were anesthetized with a small animal anesthesia machine, the air flow and isoflurane content of the anesthesia machine were adjusted, and the mice were placed in an anesthesia induction chamber for anesthesia induction. […] Mouse BCA protein detection: after Propionibacterium acnes was injected for 48 hours, the BCA protein detection was detected by using the BCA protein concentration assay kit. The left ear of mouse was homogenized with 1 mL of PBS and the dilution factor equivalent to a mass volume ratio of 1:9 was calculated, then centrifuged at 1500 g for 10 minutes. […] […] was measured with a microplate reader, the standard curves were plotted, and the BCA concentrations were calculated. […]

MIC [1]: 0.06 µg/mL (≈ 0.153 µM)
Compound: CN(C)c1cc2c(cn1)-c1ccc3c(=O)c(C(=O)O)cn(C4CC4)c3c1COC2 [Compound 6]
IL-6 Mean ± SD (IL-6; Balb/C mice, left ear homogenate, 48 hours after injection of Propionibacterium acnes, 15 μL applied at 4, 20, 28, 44 hours, drugs as hydrochloride): 322.4 ± 43.33 pg/mg
IL-6 content in the left ear tissues of mice after treatment (IL-6; compared with acne model group, p<0.001, in words): significantly reduced
